Assay results published in patent EP0479834B1, “COMPETITIVE ENZYME ASSAY FOR DETERMINATION OF PHOSPHOTHIOATE INSECTICIDES” (COMMONWEALTH SCIENTIFIC AND INDUSTRIAL RESEARCH ORGANISATION, priority 1989, dated 1991).

Experiments:
Assay type in all cases: binding
[1] = tested on: Antibody F7 (phosphorothioate-specific antibody; control pesticide chlorpyrifos-methyl); assay: competition ELISA, assay format 2 (pesticide-macromolecule conjugate on the solid phase, antibody in solution); conditions: Antibody F7, assay format 2, control pesticide CP; 30 min antibody incubation
Method: The solid phase is coated with a pesticide-macromolecule conjugate. For the results listed in Table 1, the immunogen conjugate of chlorpyrifos-methyl (F7) was used. Following pretreatment to minimize non-specific binding of conjugate by treatment with a suitable protein or detergent, the sample to be analyzed is added. The grain, food or other sample may either be extracted in methanol, ethanol or other polar water-miscible solvent, or otherwise be extracted with a volatile organic solvent such as dichloromethane or acetone. The solvent may be removed by evaporation and the residue redissolved in a smaller volume of methanol. The extract or reconstituted residue is diluted in a protein and detergent - containing buffer and applied to the solid phase and antibody is added immediately. A standard is prepared in methanol and dilutions of this standard assayed simultaneously. Such antibody may either be enzyme-labelled by direct covalent association or a suitable amplification step used to detect binding of the antibody. Analysis by this technique is based on the competition between phosphorothioate in the test sample and solid phase- bound phosphorothioate, for binding to antibody in solution. There is a decrease in the binding of antibody as the concentration of organophosphate increases in the test sample; this is manifest in decreasing absorbance of the coloured enzyme product, in this example. The concentration of organophosphate may be assessed as described in assay format 1. Clean-up of the extracts was not necessary.
An antibody incubation time of 30 minutes was used, together with 20 min (2,2'-azino bis (3-ethylbenzthiazoline-6-sulfonic acid)) substrate incubation time. The overall assay time can be reduced to 5-10 minutes or increased to 18 hours for batchwise analysis of large numbers of (several hundred) samples.
The data shown in Table 1 are potencies relative to the control pesticide (determined as relative concentration yielding 50% inhibition of antibody binding). Absolute amounts of control pesticide yielding 50% inhibition of antibody binding in competition ELISA are: P9 (0.001 ng), F7 (50 ng), Pll (2 ng).

[2] = tested on: Antibody P11 (phosphorothioate-specific antibody; control pesticide pirimiphos-methyl); assay: competition ELISA, assay format 1 (antibody on the solid phase, horseradish peroxidase-labelled phosphorothioate); conditions: Antibody P11, assay format 1, control pesticide PY; 30 min incubation with enzyme conjugate
Method: (§1) The solid phase is coated with phosphorothioate-specific antibody. Preferentially the antibody is coated at 10µg/mL in 50mM sodium carbonate buffer, pH 9.6. Non-specific binding of immunoreactants is then minimized by treatment with a suitable protein or detergent, for example, 10mg/mL bovine serum albumin in 50mM sodium phosphate, pH 7.2 - 0.9% sodium chloride. The grain or food or other sample to be analyzed is extracted in neat methanol or ethanol, although other polar water-miscible solvents may be used; such as isopropanol, acetonitrile and acetone. Mixtures of water and these solvents may also be used. The grain, food or other extract is diluted five-fold in a protein and detergent-containing buffer (for example 10mg/mL bovine serum albumin or lmg/mL Teleostean fish skin gelatin in 0.05% (v/v) Tween in phosphate-buffered saline) applied to the solid phase and enzyme-labelled phosphorothioate (diluted similarly) is added immediately. A standard is prepared in methanol or ethanol and dilutions of this standard assayed simultaneously.
(§2) An incubation time of 30 min with chlorpyrifos-methyl (P9) or pirimiphos-methyl (P11) conjugated to horseradish peroxidase was used for the results shown in Table 1, together with 10 min chromogenic substrate (2,2'-azino-bis (3-ethyl benzthiazoline -6- sulfonic acid)) incubation time. The chromogen 3,3',5,5'-tetramethylbenzidine may also be used.
(§3) Analysis by this technique is based on the competition between phosphorothioate in the test sample and enzyme-labelled phosphorothioate for binding to phosphorothioate-specific antibody on the solid phase. There is a decrease in the binding of the enzyme-labelled phosphorothioate as the concentration of phosphorothioate increases in the test sample; this is manifest in decreasing absorbance of the coloured enzyme product. The concentration of phosphorothioate in an unknown sample may be determined by comparing the degree of inhibition of antibody binding caused by the addition of the sample extract with that resulting from the addition of known amounts of phosphorothioate. […]

[3] = tested on: Antibody F9 (phosphorothioate-specific antibody; control pesticide chlorpyrifos-methyl); assay: as above; conditions: Antibody F9, assay format 1, control pesticide CP; 30 min incubation with enzyme conjugate
Method: as §1, §2, §3

Structure (SMILES)	potencies relative to the control pesticide (relative concentration yielding 50% inhibition of antibody binding) [1]	potencies relative to the control pesticide (relative concentration yielding 50% inhibition of antibody binding) [2]	potencies relative to the control pesticide (relative concentration yielding 50% inhibition of antibody binding) [3]
CCOP(=S)(OCC)Oc1nc(Cl)c(Cl)cc1Cl [chlorpyrifos-ethyl]	0.07		
COP(=S)(OC)Oc1ccc([N+](=O)[O-])cc1 [methylparathion]	0.003		
COP(=S)(OC)Oc1ccc([N+](=O)[O-])c(C)c1 [fenitrothion (FN), fenitrothion]	0.01		
CCN(CC)c1nc(C)cc(OP(=S)(OC)OC)n1 [pirimiphos-methyl (PY), pirimiphos-methyl]		1.0	
CCOP(=S)(OCC)Oc1cc(C)nc(N(CC)CC)n1 [pirimiphos-ethyl]		2.9	
COP(=S)(OC)Oc1nc(Cl)c(Cl)cc1Cl [chlorpyrifos-methyl (CP), chlorpyrifos-methyl]	1.0		1.0
COP(=S)(OC)Oc1ccc([N+](=O)[O-])cc1Cl [dicapthon]	0.01		
